Results: patent publication US9302999B2, “Substituted triazoles as herbicides” (E. I. DU PONT DE NEMOURS AND COMPANY, priority 2012, dated 2016)

Tests used:
Assay type in all cases: in vivo
[1] = tested on: crabgrass, large (large crabgrass, Digitaria sanguinalis); test: Test A pre-/postemergence: crabgrass, large
Outline: (§1)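 Pre: directed soil spray after planting in loam + sand. Post: same formulation (non-phytotoxic solvent + surfactant) on 1–2-leaf plants, 2–10 cm. Greenhouse ~10 d; visual injury 0–100 vs untreated.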

[2] = tested on: sedge, umbrella (small-flower umbrella sedge Cyperus difformis); test: Test B flooded paddy: sedge, umbrella; conditions: Flood, applied to paddy water at 2-leaf stage, visually evaluated after 13 to 15 days
Outline: (§2)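 Plants were grown to the 2-leaf stage, then pots were flooded to 3 cm above the soil and compounds were applied directly into the paddy water. Water depth was held for the whole test; after 13 to 15 days in a greenhouse, injury was visually rated against untreated controls (0 = no effect, 100 = complete control).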

[3] = tested on: morningglory (Ipomoea spp.); test: Test A pre-/postemergence: morningglory
Outline: as §1

[4] = tested on: wheat (Triticum aestivum); test: Test A pre-/postemergence: wheat
Outline: as §1

[5] = tested on: ducksalad (Heteranthera limosa); test: Test B flooded paddy: ducksalad; conditions: Flood, applied to paddy water at 2-leaf stage, visually evaluated after 13 to 15 days
Outline: as §2

corn (Zea mays) = test: Test A pre-/postemergence: corn
Outline: as §1

[6] = tested on: barnyardgrass (Echinochloa crus-galli); test: Test A pre-/postemergence: barnyardgrass
Outline: as §1

[7] = tested on: barnyardgrass (Echinochloa crus-galli); test: Test B flooded paddy: barnyardgrass; conditions: Flood, applied to paddy water at 2-leaf stage, visually evaluated after 13 to 15 days
Experimental: Seeds selected from rice (Oryza sativa), sedge, umbrella (small-flower umbrella sedge Cyperus difformis), ducksalad (Heteranthera limosa), and barnyardgrass (Echinochloa crus-galli) were grown to the 2-leaf stage for testing. At time of treatment, test pots were flooded to 3 cm above the soil surface, treated by application of test compounds directly to the paddy water, and then maintained at that water depth for the duration of the test.
Treated plants and controls were maintained in a greenhouse for 13 to 15 days, after which time all species were compared to controls and visually evaluated. Plant response ratings, summarized in Table B, are based on a scale of 0 to 100 where 0 is no effect and 100 is complete control. A dash (-) response means no test result.

[8] = tested on: velvetleaf (Abutilon theophrasti); test: Test A pre-/postemergence: velvetleaf
Outline: as §1

[9] = tested on: foxtail, giant (giant foxtail, Setaria faberii); test: Test A pre-/postemergence: foxtail, giant
Outline: as §1

rice (Oryza sativa) = test: Test B flooded paddy: rice; conditions: Flood, applied to paddy water at 2-leaf stage, visually evaluated after 13 to 15 days
Outline: as §2

[10] = tested on: pigweed (Amaranthus retroflexus); test: Test A pre-/postemergence: pigweed
Outline: as §1

[11] = Postemergence, 125 g ai/ha, 0 to 100 scale, 0 is no effect, 100 is complete control
[12] = Postemergence, 500 g ai/ha, 0 to 100 scale, 0 is no effect, 100 is complete control
[13] = Preemergence, 125 g ai/ha, 0 to 100 scale where 0 is no effect and 100 is complete control
[14] = Preemergence, 500 g ai/ha, 0 to 100 scale (0 no effect, 100 complete control)
[15] = Postemergence, 500 g ai/ha, visual rating on 0 to 100 scale (0 no effect, 100 complete control), approximately ten days
[16] = Preemergence, 125 g ai/ha, 0 to 100 scale (0 no effect, 100 complete control)
[17] = Preemergence, 500 g ai/ha, 0 to 100 scale, 0 is no effect, 100 is complete control

SMILES: CCc1nn(-c2ccc(F)cc2F)nc1Oc1ccnc(C(F)(F)F)c1 [Compound 178]
- Plant response rating, Crabgrass, Large [1, 11]: 90
- Crabgrass, Large plant response rating [1, 12]: 90
- Plant response rating, Crabgrass, Large [1, 13]: 90
- Plant response rating, Crabgrass, Large [1, 14]: 100
- Plant response rating, Sedge, Umbrella (0 to 100 scale, 0 is no effect, 100 is complete control) ([2]; 125 g ai/ha): 60
- Plant response rating, Morningglory [3, 11]: 90
- Morningglory plant response rating [3, 12]: 100
- Plant response rating, Morningglory [3, 13]: 0
- Plant response rating, Morningglory [3, 14]: 60
- Plant response rating, Wheat [4, 11]: 20
- Wheat plant response rating [4, 12]: 40
- Plant response rating, Wheat [4, 13]: 0
- Plant response rating, Wheat [4, 14]: 10
- Plant response rating, Ducksalad (0 to 100 scale, 0 is no effect, 100 is complete control) ([5]; 125 g ai/ha): 30
- Plant response rating, Corn (corn (Zea mays); [11]): 20
- Corn plant response rating (corn (Zea mays); [12]): 30
- Plant response rating, Corn (corn (Zea mays); [13]): 0
- Plant response rating, Corn (corn (Zea mays); [14]): 10
- Plant response rating, Barnyardgrass [6, 11]: 30
- Barnyardgrass plant response rating [6, 12]: 80
- Plant response rating, Barnyardgrass [6, 13]: 20
- Plant response rating, Barnyardgrass [6, 14]: 100
- Plant response rating, Barnyardgrass (0 to 100 scale, 0 is no effect, 100 is complete control) ([7]; 125 g ai/ha): 0
- Plant response rating, Velvetleaf [8, 11]: 60
- Velvetleaf plant response rating [8, 12]: 100
- Plant response rating, Velvetleaf [8, 13]: 10
- Plant response rating, Velvetleaf [8, 14]: 60
- Plant response rating, Foxtail, Giant [9, 11]: 60
- Foxtail, Giant plant response rating [9, 12]: 90
- Plant response rating, Foxtail, Giant [9, 13]: 90
- Plant response rating, Foxtail, Giant [9, 14]: 100
- Plant response rating, Rice (0 to 100 scale, 0 is no effect, 100 is complete control) (rice (Oryza sativa); 125 g ai/ha): 20
- Plant response rating, Pigweed [10, 11]: 100
- Pigweed plant response rating [10, 12]: 100
- Plant response rating, Pigweed [10, 13]: 100
- Plant response rating, Pigweed [10, 14]: 100

SMILES: CC(C)(C)c1nn(-c2ccc(F)cc2)nc1C(=O)c1ccnc(C(F)(F)F)c1 [Compound 175]
- Plant response rating, Crabgrass, Large [1, 11]: 0
- Crabgrass, Large plant response rating [1, 12]: 0
- Plant response rating, Crabgrass, Large [1, 13]: 0
- Plant response rating, Crabgrass, Large [1, 14]: 0
- Plant response rating, Sedge, Umbrella (0 to 100 scale, 0 is no effect, 100 is complete control) ([2]; 125 g ai/ha): 0
- Plant response rating, Morningglory [3, 11]: 0
- Morningglory plant response rating [3, 12]: 0
- Plant response rating, Morningglory [3, 13]: 0
- Plant response rating, Morningglory [3, 14]: 0
- Plant response rating, Wheat [4, 11]: 0
- Wheat plant response rating [4, 12]: 0
- Plant response rating, Wheat [4, 13]: 0
- Plant response rating, Wheat [4, 14]: 0
- Plant response rating, Ducksalad (0 to 100 scale, 0 is no effect, 100 is complete control) ([5]; 125 g ai/ha): 0
- Plant response rating, Corn (corn (Zea mays); [11]): 0
- Corn plant response rating (corn (Zea mays); [12]): 0
- Plant response rating, Corn (corn (Zea mays); [13]): 0
- Plant response rating, Corn (corn (Zea mays); [14]): 0
- Plant response rating, Barnyardgrass [6, 11]: 0
- Barnyardgrass plant response rating [6, 12]: 0
- Plant response rating, Barnyardgrass [6, 13]: 0
- Plant response rating, Barnyardgrass [6, 14]: 0
- Plant response rating, Barnyardgrass (0 to 100 scale, 0 is no effect, 100 is complete control) ([7]; 125 g ai/ha): 0
- Plant response rating, Velvetleaf [8, 11]: 0
- Velvetleaf plant response rating [8, 12]: 0
- Plant response rating, Velvetleaf [8, 13]: 0
- Plant response rating, Velvetleaf [8, 14]: 0
- Plant response rating, Foxtail, Giant [9, 11]: 0
- Foxtail, Giant plant response rating [9, 12]: 0
- Plant response rating, Foxtail, Giant [9, 13]: 0
- Plant response rating, Foxtail, Giant [9, 14]: 0
- Plant response rating, Rice (0 to 100 scale, 0 is no effect, 100 is complete control) (rice (Oryza sativa); 125 g ai/ha): 0
- Plant response rating, Pigweed [10, 11]: 0
- Pigweed plant response rating [10, 12]: 0
- Plant response rating, Pigweed [10, 13]: 0
- Plant response rating, Pigweed [10, 14]: 0

SMILES: Cc1nn(-c2ccnc(F)c2)nc1C(=O)c1cccc(C(F)(F)F)c1 [Compound 3]
- Crabgrass, Large plant response rating [1, 11]: 40
- Crabgrass, Large plant response rating [1, 15]: 90
- Plant response rating, Crabgrass, Large [1, 16]: 90
- Plant response rating, Crabgrass, Large [1, 17]: 100
- Plant response rating, Sedge, Umbrella (0 to 100 scale, 0 is no effect, 100 is complete control) ([2]; 250 g ai/ha): 0
- Morningglory plant response rating [3, 11]: 30
- Morningglory plant response rating [3, 15]: 100
- Plant response rating, Morningglory [3, 16]: 0
- Plant response rating, Morningglory [3, 17]: 50
- Wheat plant response rating [4, 11]: 30
- Wheat plant response rating [4, 15]: 40
- Plant response rating, Wheat [4, 16]: 0
- Plant response rating, Wheat [4, 17]: 40
- Plant response rating, Ducksalad (0 to 100 scale, 0 is no effect, 100 is complete control) ([5]; 250 g ai/ha): 0
- Corn plant response rating (corn (Zea mays); [11]): 20
- Corn plant response rating (corn (Zea mays); [15]): 30
- Plant response rating, Corn (corn (Zea mays); [16]): 0
- Plant response rating, Corn (corn (Zea mays); [17]): 10
- Barnyardgrass plant response rating [6, 11]: 30
- Barnyardgrass plant response rating [6, 15]: 50
- Plant response rating, Barnyardgrass [6, 16]: 10
- Plant response rating, Barnyardgrass [6, 17]: 50
- Plant response rating, Barnyardgrass (0 to 100 scale, 0 is no effect, 100 is complete control) ([7]; 250 g ai/ha): 0
- Velvetleaf plant response rating [8, 11]: 50
- Velvetleaf plant response rating [8, 15]: 60
- Plant response rating, Velvetleaf [8, 16]: 0
- Plant response rating, Velvetleaf [8, 17]: 10
- Foxtail, Giant plant response rating [9, 11]: 30
- Foxtail, Giant plant response rating [9, 15]: 90
- Plant response rating, Foxtail, Giant [9, 16]: 90
- Plant response rating, Foxtail, Giant [9, 17]: 100
- Plant response rating, Rice (0 to 100 scale, 0 is no effect, 100 is complete control) (rice (Oryza sativa); 250 g ai/ha): 0
- Pigweed plant response rating [10, 11]: 90
- Pigweed plant response rating [10, 15]: 100
- Plant response rating, Pigweed [10, 16]: 70
- Plant response rating, Pigweed [10, 17]: 100

SMILES: COc1nn(-c2ccc(F)cc2F)nc1Cc1ccnc(C(F)(F)F)c1 [Compound 165]
- Plant response rating, Crabgrass, Large [1, 11]: 70
- Crabgrass, Large plant response rating [1, 12]: 90
- Plant response rating, Crabgrass, Large [1, 13]: 100
- Plant response rating, Crabgrass, Large [1, 14]: 100
- Plant response rating, Sedge, Umbrella (0 to 100 scale, 0 is no effect, 100 is complete control) ([2]; 125 g ai/ha): 70
- Plant response rating, Morningglory [3, 11]: 60
- Morningglory plant response rating [3, 12]: 80
- Plant response rating, Wheat [4, 11]: 20
- Wheat plant response rating [4, 12]: 30
- Plant response rating, Wheat [4, 13]: 0
- Plant response rating, Wheat [4, 14]: 0
- Plant response rating, Ducksalad (0 to 100 scale, 0 is no effect, 100 is complete control) ([5]; 125 g ai/ha): 40
- Plant response rating, Corn (corn (Zea mays); [11]): 20
- Corn plant response rating (corn (Zea mays); [12]): 30
- Plant response rating, Corn (corn (Zea mays); [13]): 0
- Plant response rating, Corn (corn (Zea mays); [14]): 10
- Plant response rating, Barnyardgrass [6, 11]: 40
- Barnyardgrass plant response rating [6, 12]: 90
- Plant response rating, Barnyardgrass [6, 13]: 30
- Plant response rating, Barnyardgrass [6, 14]: 100
- Plant response rating, Barnyardgrass (0 to 100 scale, 0 is no effect, 100 is complete control) ([7]; 125 g ai/ha): 10
- Plant response rating, Velvetleaf [8, 11]: 40
- Velvetleaf plant response rating [8, 12]: 70
- Plant response rating, Velvetleaf [8, 13]: 0
- Plant response rating, Velvetleaf [8, 14]: 10
- Plant response rating, Foxtail, Giant [9, 11]: 60
- Foxtail, Giant plant response rating [9, 12]: 90
- Plant response rating, Foxtail, Giant [9, 13]: 90
- Plant response rating, Foxtail, Giant [9, 14]: 100
- Plant response rating, Rice (0 to 100 scale, 0 is no effect, 100 is complete control) (rice (Oryza sativa); 125 g ai/ha): 20
- Plant response rating, Pigweed [10, 11]: 100
- Pigweed plant response rating [10, 12]: 100
- Plant response rating, Pigweed [10, 13]: 100
- Plant response rating, Pigweed [10, 14]: 100
